Measured values published in ChEMBL document CHEMBL3045679, “Microwave-assisted synthesis and pharmacological studies of novel 5-deazaalloxazine derivatives” (2012).
≈ marks a conversion by molar mass, not a printed value. Calls of active or inactive are those of the source. The rule behind the calls is not given here.

Tests used:
[1] = system: Klebsiella aerogenes; experiment: Antibacterial activity against Enterobacter aerogenes NCIM 2239 at 500 ug/disk after 24 hr by disk diffusion method; format: functional
[2] = system: Bacillus subtilis; experiment: Antibacterial activity against Bacillus subtilis NCIM 2063 at 1000 ug/disk after 24 hr by disk diffusion method; format: functional; settings: NCIM 2063, 24 h, read-out: DIZ
[3] = system: Penicillium chrysogenum; experiment: Antifungal activity against Penicillium chrysogenum NCIM 707 at 500 ug/disk after 72 hr by disk diffusion method; format: functional
[4] = system: Bacillus cereus; experiment: Antibacterial activity against Bacillus cereus NCIM 2155 at 500 ug/disk after 24 hr by disk diffusion method; format: functional; settings: for zone of inhibition at 500 µg/disc: NCIM 2155, 24 h, read-out: DIZ
[5] = system: Klebsiella aerogenes; experiment: Antibacterial activity against Enterobacter aerogenes NCIM 2239 at 1000 ug/disk after 24 hr by disk diffusion method; format: functional; settings: NCIM 2239, 24 h, read-out: DIZ
[6] = system: Pseudomonas aeruginosa; experiment: Antibacterial activity against Pseudomonas aeruginosa NCIM 2200 at 1000 ug/disk after 24 hr by disk diffusion method; format: functional; settings: NCIM 2200, 24 h, read-out: DIZ
[7] = system: Streptomyces albus; experiment: Antibacterial activity against Streptomyces albus NCIM 2178 at 500 ug/disk after 24 hr by disk diffusion method; format: functional, organism-based
[8] = system: Escherichia coli; experiment: Antibacterial activity against Escherichia coli NCIM 2065 after 24 hr by broth dilution assay; format: functional; settings: NCIM 2065, 24 h
[9] = system: Klebsiella aerogenes; experiment: Antibacterial activity against Enterobacter aerogenes NCIM 2239 after 24 hr by broth dilution assay; format: functional; settings: NCIM 2239, 24 h
[10] = system: Aspergillus flavus; experiment: Antifungal activity against Aspergillus flavus NCIM 535 at 1000 ug/disk after 72 hr by disk diffusion method; format: functional
[11] = system: Bacillus subtilis; experiment: Antibacterial activity against Bacillus subtilis NCIM 2063 after 24 hr by broth dilution assay; format: functional; settings: NCIM 2063, 24 h
[12] = system: Bacillus subtilis; experiment: Antibacterial activity against Bacillus subtilis NCIM 2063 at 500 ug/disk after 24 hr by disk diffusion method; format: functional; settings: for zone of inhibition at 500 µg/disc: NCIM 2063, 24 h, read-out: DIZ
[13] = system: Escherichia coli; experiment: Antibacterial activity against Escherichia coli NCIM 2065 at 1000 ug/disk after 24 hr by disk diffusion method; format: functional; settings: NCIM 2065, 24 h, read-out: DIZ
[14] = system: Candida albicans; experiment: Antifungal activity against Candida albicans NCIM 3471 at 1000 ug/disk after 72 hr by disk diffusion method; format: functional; settings: for zone of inhibition at 1000 µg/disc: NCIM 3471, 72 h, read-out: DIZ
[15] = system: Pseudomonas aeruginosa; experiment: Antibacterial activity against Pseudomonas aeruginosa NCIM 2200 at 500 ug/disk after 24 hr by disk diffusion method; format: functional
[16] = system: Aspergillus flavus; experiment: Antifungal activity against Aspergillus flavus NCIM 535 at 500 ug/disk after 72 hr by disk diffusion method; format: functional
[17] = system: Escherichia coli; experiment: Antibacterial activity against Escherichia coli NCIM 2065 at 500 ug/disk after 24 hr by disk diffusion method; format: functional; settings: for zone of inhibition at 500 µg/disc: NCIM 2065, 24 h, read-out: DIZ
[18] = system: Aspergillus niger; experiment: Antifungal activity against Aspergillus niger NCIM 1196 at 500 ug/disk after 72 hr by disk diffusion method; format: functional
[19] = system: Candida albicans; experiment: Antifungal activity against Candida albicans NCIM 3471 at 500 ug/disk after 72 hr by disk diffusion method; format: functional
[20] = system: Penicillium chrysogenum; experiment: Antifungal activity against Penicillium chrysogenum NCIM 707 at 1000 ug/disk after 72 hr by disk diffusion method; format: functional; settings: for zone of inhibition at 1000 µg/disc: NCIM 707, 72 h, read-out: DIZ
[21] = system: Bacillus cereus; experiment: Antibacterial activity against Bacillus cereus NCIM 2155 after 24 hr by broth dilution assay; format: functional; settings: NCIM 2155, 24 h
[22] = system: Rhodotorula mucilaginosa; experiment: Antifungal activity against Rhodotorula mucilaginosa NCIM 3174 at 1000 ug/disk after 72 hr by disk diffusion method; format: functional; settings: NCIM 3174, 72 h, read-out: DIZ
[23] = system: Rhodotorula mucilaginosa; experiment: Antifungal activity against Rhodotorula mucilaginosa NCIM 3174 at 500 ug/disk after 72 hr by disk diffusion method; format: functional
[24] = system: Aspergillus niger; experiment: Antifungal activity against Aspergillus niger NCIM 1196 at 1000 ug/disk after 72 hr by disk diffusion method; format: functional; settings: for zone of inhibition at 1000 µg/disc: NCIM 1196, 72 h, read-out: DIZ
[25] = system: Streptomyces albus; experiment: Antibacterial activity against Streptomyces albus NCIM 2178 after 24 hr by broth dilution assay; format: functional; settings: NCIM 2178, 24 h
[26] = system: Pseudomonas aeruginosa; experiment: Antibacterial activity against Pseudomonas aeruginosa NCIM 2200 after 24 hr by broth dilution assay; format: functional; settings: NCIM 2200, 24 h
[27] = system: Lipomyces lipofer; experiment: Antifungal activity against Lipomyces lipofer NCIM 3252 at 1000 ug/disk after 72 hr by disk diffusion method; format: functional; settings: for zone of inhibition at 1000 µg/disc: NCIM 3252, 72 h, read-out: DIZ
[28] = system: Bacillus cereus; experiment: Antibacterial activity against Bacillus cereus NCIM 2155 at 1000 ug/disk after 24 hr by disk diffusion method; format: functional; settings: NCIM 2155, 24 h, read-out: DIZ
[29] = system: Streptomyces albus; experiment: Antibacterial activity against Streptomyces albus NCIM 2178 at 1000 ug/disk after 24 hr by disk diffusion method; format: functional; settings: for zone of inhibition at 1000 µg/disc: NCIM 2178, 24 h, read-out: DIZ
[30] = system: Lipomyces lipofer; experiment: Antifungal activity against Lipomyces lipofer NCIM 3252 at 500 ug/disk after 72 hr by disk diffusion method; format: functional; settings: for zone of inhibition at 500 µg/disc: NCIM 3252, 72 h, read-out: DIZ
[31] = system: Aspergillus niger; experiment: Antifungal activity against Aspergillus niger NCIM 1196 after 72 hr by broth dilution assay; format: functional; settings: NCIM 1196, 72 h
[32] = system: Penicillium chrysogenum; experiment: Antifungal activity against Penicillium chrysogenum NCIM 707 after 72 hr by broth dilution assay; format: functional; settings: NCIM 707, 72 h
[33] = system: Lipomyces lipofer; experiment: Antifungal activity against Lipomyces lipofer NCIM 3252 after 72 hr by broth dilution assay; format: functional; settings: NCIM 3252, 72 h
[34] = system: Rhodotorula mucilaginosa; experiment: Antifungal activity against Rhodotorula mucilaginosa NCIM 3174 after 72 hr by broth dilution assay; format: functional; settings: NCIM 3174, 72 h
[35] = system: Candida albicans; experiment: Antifungal activity against Candida albicans NCIM 3471 after 72 hr by broth dilution assay; format: functional; settings: NCIM 3471, 72 h

| Structure (SMILES) | diameter of the inhibition zone (DIZ) [1] | zone of inhibition at 1000 µg/disc [2] | diameter of the inhibition zone (DIZ) [3] | zone of inhibition at 500 µg/disc [4] | zone of inhibition at 1000 µg/disc [5] | zone of inhibition at 1000 µg/disc [6] | diameter of the inhibition zone (DIZ) [7] | MIC [8] | MIC [9] | diameter of the inhibition zone (DIZ) [10] | MIC [11] | zone of inhibition at 500 µg/disc [12] | zone of inhibition at 1000 µg/disc [13] | zone of inhibition at 1000 µg/disc [14] | diameter of the inhibition zone (DIZ) [16] | diameter of the inhibition zone (DIZ) [19] | MIC [21] | zone of inhibition at 1000 µg/disc [22] | MIC [26] | zone of inhibition at 1000 µg/disc [28] | other results |
| --- | --- | --- | --- | --- | --- | --- | --- | --- | --- | --- | --- | --- | --- | --- | --- | --- | --- | --- | --- | --- | --- |
| O=c1[nH]c(=O)c2cc3cc(Cl)ccc3nc2[nH]1 | inactive | 12 mm | inactive | 8 mm | 8 mm | 12 mm | inactive | 7.8 µg/mL (≈ 31.5 µM) | 62.5 µg/mL (≈ 252 µM) | inactive | 31.2 µg/mL (≈ 126 µM) | 8 mm | 12 mm | 10 mm | inactive | inactive | 31.2 µg/mL (≈ 126 µM) | 9 mm | 31.2 µg/mL (≈ 126 µM) | 10 mm | diameter of the inhibition zone (DIZ) [15]: inactive; zone of inhibition at 500 µg/disc [17]: 9 mm; diameter of the inhibition zone (DIZ) [18]: inactive; diameter of the inhibition zone (DIZ) [20]: inactive; diameter of the inhibition zone (DIZ) [23]: inactive; diameter of the inhibition zone (DIZ) [24]: inactive; MIC [25]: 62.5 µg/mL (≈ 252 µM); diameter of the inhibition zone (DIZ) [27]: inactive; zone of inhibition at 1000 µg/disc [29]: 10 mm; diameter of the inhibition zone (DIZ) [30]: inactive |
| COc1ccc2nc3[nH]c(=S)[nH]c(=O)c3cc2c1 | inactive | 11 mm | inactive | – | 13 mm | 15 mm | inactive | 31.2 µg/mL (≈ 120 µM) | 15.6 µg/mL (≈ 60.2 µM) | inactive | 62.5 µg/mL (≈ 241 µM) | – | 13 mm | – | inactive | inactive | 125 µg/mL (≈ 482 µM) | 8 mm | 3.9 µg/mL (≈ 15 µM) | 10 mm | MIC [31]: 7.8 µg/mL (≈ 30.1 µM); diameter of the inhibition zone (DIZ) [4]: inactive; diameter of the inhibition zone (DIZ) [12]: inactive; diameter of the inhibition zone (DIZ) [14]: inactive; zone of inhibition at 500 µg/disc ([15]; NCIM 2200, 24 h, read-out: DIZ): 9 mm; zone of inhibition at 500 µg/disc [17]: 9 mm; zone of inhibition at 500 µg/disc ([18]; NCIM 1196, 72 h, read-out: DIZ): 11 mm; zone of inhibition at 1000 µg/disc [20]: 12 mm; diameter of the inhibition zone (DIZ) [23]: inactive; zone of inhibition at 1000 µg/disc [24]: 13 mm; zone of inhibition at 1000 µg/disc [27]: 12 mm; diameter of the inhibition zone (DIZ) [29]: inactive; zone of inhibition at 500 µg/disc [30]: 11 mm; MIC [32]: 125 µg/mL (≈ 482 µM); MIC [33]: 125 µg/mL (≈ 482 µM) |
| O=c1[nH]c(=S)[nH]c2nc3ccc(Br)cc3cc12 | inactive | 14 mm | – | 10 mm | 8 mm | 12 mm | inactive | 125 µg/mL (≈ 406 µM) | 125 µg/mL (≈ 406 µM) | – | 7.8 µg/mL (≈ 25.3 µM) | 12 mm | 10 mm | 12 mm | inactive | inactive | 15.6 µg/mL (≈ 50.6 µM) | 12 mm | 125 µg/mL (≈ 406 µM) | 15 mm | zone of inhibition at 500 µg/disc ([3]; NCIM 707, 72 h, read-out: DIZ): 8 mm; zone of inhibition at 1000 µg/disc ([10]; NCIM 535, 72 h, read-out: DIZ): 9 mm; diameter of the inhibition zone (DIZ) [15]: inactive; diameter of the inhibition zone (DIZ) [17]: inactive; diameter of the inhibition zone (DIZ) [18]: inactive; zone of inhibition at 1000 µg/disc [20]: 12 mm; MIC [34]: 125 µg/mL (≈ 406 µM); zone of inhibition at 500 µg/disc ([23]; NCIM 3174, 72 h, read-out: DIZ): 7 mm; zone of inhibition at 1000 µg/disc [24]: 10 mm; MIC [25]: 62.5 µg/mL (≈ 203 µM); zone of inhibition at 1000 µg/disc [27]: 12 mm; zone of inhibition at 1000 µg/disc [29]: 12 mm; zone of inhibition at 500 µg/disc [30]: 8 mm; MIC [35]: 125 µg/mL (≈ 406 µM); MIC [33]: 62.5 µg/mL (≈ 203 µM) |
